# Test results taken from patent US8524465B2, “Agonists of bitter taste receptors and uses thereof” (Deutsches Institut fuer Ernaehrungsforschung …, priority 2007, dated 2013).
# Tests used:
# TAS2R14 = molecular target: T1, TAS2R14 (Homo sapiens, UniProt Q9NYV8); assay: FLIPR calcium imaging, HEK-293T Gα16gust44 cells expressing TAS2R14; type: cell-based; conditions: for molar range at which TAS2R14 responded to the bitter substance: calcium response, transfected HEK-293T Gα16gust44 cells, FLIPR
# T1 construct: expressed in transfected cells; host or cells: HEK-293T cells stably expressing the chimeric G-protein subunit Gα16gust44
# T1 sequence (Q9NYV8 1-317): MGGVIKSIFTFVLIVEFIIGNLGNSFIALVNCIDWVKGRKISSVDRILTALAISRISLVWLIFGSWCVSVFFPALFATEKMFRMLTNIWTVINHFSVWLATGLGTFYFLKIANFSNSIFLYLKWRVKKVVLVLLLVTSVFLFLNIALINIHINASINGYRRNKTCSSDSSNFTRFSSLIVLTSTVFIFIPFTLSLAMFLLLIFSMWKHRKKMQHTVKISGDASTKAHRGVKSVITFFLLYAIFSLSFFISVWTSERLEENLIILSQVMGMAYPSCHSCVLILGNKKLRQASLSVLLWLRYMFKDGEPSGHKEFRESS
# Protocol: (§1) Tastants (Sigma-Aldrich, Taufkirchen, Germany) were dissolved and administered in the following (in mM): 130 NaCl, 5 KCl, 10 HEPES, 2 CaCl2, and 10 mM glucose, pH7.4. Data were collected from 1-2 independent experiments performed at least in triplicate and processed with SigmaPlot (SPSS, Chicago, Ill.). For dose-response curve calculation, the peak fluorescence responses after compound addition were corrected for and normalized to background fluorescence (ΔF/F=(F−F0)/F0), and baseline noise was subtracted.
# (§2) All 25 human bitter taste receptors were challenged with 100 μM artemorin (FIG. 1) in a FLIPR calcium imaging experiment.
# TAS2R10 = molecular target: T2, TAS2R10 (Homo sapiens, UniProt Q9NYW0, T156M); assay: FLIPR calcium imaging, HEK-293T Gα16gust44 cells expressing TAS2R10; type: cell-based
# T2 construct: expressed in transfected cells; host or cells: HEK-293T cells stably expressing the chimeric G-protein subunit Gα16gust44
# T2 sequence (Q9NYW0 1-307 T156M): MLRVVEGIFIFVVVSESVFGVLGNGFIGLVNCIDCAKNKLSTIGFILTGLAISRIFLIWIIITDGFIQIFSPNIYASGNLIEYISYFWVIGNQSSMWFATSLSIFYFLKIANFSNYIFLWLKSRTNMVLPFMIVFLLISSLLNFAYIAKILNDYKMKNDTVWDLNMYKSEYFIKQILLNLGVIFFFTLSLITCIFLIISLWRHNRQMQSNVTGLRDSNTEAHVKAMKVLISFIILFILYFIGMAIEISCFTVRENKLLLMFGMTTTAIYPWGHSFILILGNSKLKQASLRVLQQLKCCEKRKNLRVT
# Protocol: as §1, §2
# TAS2R4 = molecular target: T3, TAS2R4 (Homo sapiens, UniProt Q9NYW5); assay: FLIPR calcium imaging, HEK-293T Gα16gust44 cells expressing TAS2R4; type: cell-based
# T3 construct: expressed in transfected cells; host or cells: HEK-293T cells stably expressing the chimeric G-protein subunit Gα16gust44
# T3 sequence (Q9NYW5 1-299): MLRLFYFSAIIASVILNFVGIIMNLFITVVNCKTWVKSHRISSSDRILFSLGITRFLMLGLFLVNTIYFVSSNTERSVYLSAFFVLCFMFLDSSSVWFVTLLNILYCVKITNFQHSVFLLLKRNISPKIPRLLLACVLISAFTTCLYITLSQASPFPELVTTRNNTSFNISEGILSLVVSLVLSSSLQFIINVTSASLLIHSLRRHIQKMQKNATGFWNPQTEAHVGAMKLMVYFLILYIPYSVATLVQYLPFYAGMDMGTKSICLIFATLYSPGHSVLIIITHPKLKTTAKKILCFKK
# Protocol: as §1, §2
# mock-transfected cells = conditions: 1 mM PROP
# Protocol: as §1, §2
# [1] = challenged with 100 μM artemorin, FIG. 2
compound,measurement,setting,value
"CCNC(=S)NCC [N,N′-Diethylthiourea]",molar range at which TAS2R14 responded to the bitter substance,TAS2R14,10 mM
C=C1C(=O)O[C@@H]2[C@H]3C(C)=CC[C@@]34O[C@@]4(C)CC[C@@H]12 [Arglabin],molar range at which TAS2R10 responded to the bitter substance,"TAS2R10; calcium response, transfected HEK-293T Gα16gust44 cells, FLIPR",0.1 mM
same,molar range at which TAS2R14 responded to the bitter substance,TAS2R14,0.1 mM
CCCc1cc(=O)[nH]c(=S)[nH]1 [propylthiouracil],calcium responses in TAS2R4-expressing cells,TAS2R4; result in words,very small (somewhat questionable) and no dose-dependency can be shown
same,signals of mock-transfected cells,mock-transfected cells,elicits endogenous signals of mock-transfected cells
C=C1CC[C@H]2C(=C)C(=O)O[C@@H]2/C=C(\C)CC[C@H]1O [artemorin],receptor response in FLIPR calcium imaging experiment (TAS2R10),TAS2R10; [1],responded to artemorin in a dose-dependent manner
same,receptor response in FLIPR calcium imaging experiment (TAS2R4),TAS2R4; [1],responded to artemorin in a dose-dependent manner
same,receptor response in FLIPR calcium imaging experiment (TAS2R14),TAS2R14; [1],responded to artemorin in a dose-dependent manner
